In data set [1] the test system is Escherichia coli. The experiment in a line: Induction of Escherichia coli AB1157 DNA degradation after 1 hr by agarose gel electrophoresis.
In data set [2] the target is Albumin (Bos taurus, UniProt P02769). The experiment in a line: Induction of Bos taurus (bovine) serum albumin degradation after 1 hr by SDS-PAGE analysis. The settings on record: cattle.
Data set [3] can be described thus: Antioxidant activity assessed as SOD-like activity measuring inhibition of superoxide radical production at 50 ug after 30 min by NBT reduction assay. The data set is classed as functional.
A short description of data set [4]: Antioxidant activity assessed as DPPH scavenging activity at 50 ug after 30 min by spectrophotometry. The data set is classed as functional.
For data set [5], the system named is Saccharomyces cerevisiae. The experiment in a line: Antimicrobial activity against Saccharomyces cerevisiae after 24 hr by CLSI liquid dilution method. The data set is classed as functional.
For data set [6], the system named is Staphylococcus aureus. The experiment in a line: Antimicrobial activity against Staphylococcus aureus after 24 hr by CLSI liquid dilution method. The data set is classed as functional.
The test system of data set [7] is Pseudomonas aeruginosa. The experiment in a line: Antimicrobial activity against Pseudomonas aeruginosa after 24 hr by CLSI liquid dilution method. The data set is classed as functional.
The subject of data set [8] is Bacillus subtilis. The experiment in a line: Antimicrobial activity against Bacillus subtilis after 24 hr by CLSI liquid dilution method. The data set is classed as functional.
Data set [9] relates to Escherichia coli. The experiment in a line: Antimicrobial activity against Escherichia coli after 24 hr by CLSI liquid dilution method. The data set is classed as functional.
The subject of data set [10] is Saccharomyces cerevisiae. The experiment in a line: Antimicrobial activity against Saccharomyces cerevisiae at 100 ug after 24 hr by cup diffusion technique. Conditions: read-out: DIZ. The data set is classed as functional.
In data set [11] the test system is Staphylococcus aureus. The experiment in a line: Antimicrobial activity against Staphylococcus aureus at 100 ug after 24 hr by cup diffusion technique. The data set is classed as functional. Conditions: read-out: DIZ.
Data set [12] deals with Pseudomonas aeruginosa. The experiment in a line: Antimicrobial activity against Pseudomonas aeruginosa after 24 hr by cup diffusion technique. The data set is classed as functional.
The subject of data set [13] is Bacillus subtilis. The experiment in a line: Antimicrobial activity against Bacillus subtilis at 100 ug after 24 hr by cup diffusion technique. Conditions: read-out: DIZ. The data set is classed as functional.
Data set [14] deals with Escherichia coli. The experiment in a line: Antimicrobial activity against Escherichia coli at 100 ug after 24 hr by cup diffusion technique. The data set is classed as functional. The settings on record: read-out: DIZ.

Structures are written as SMILES. ≈ marks a conversion by molar mass, not a printed value. Calls of active or inactive are those of the source. The rule behind the calls is not given here.

Chain of Albumin (P02769 whole entry): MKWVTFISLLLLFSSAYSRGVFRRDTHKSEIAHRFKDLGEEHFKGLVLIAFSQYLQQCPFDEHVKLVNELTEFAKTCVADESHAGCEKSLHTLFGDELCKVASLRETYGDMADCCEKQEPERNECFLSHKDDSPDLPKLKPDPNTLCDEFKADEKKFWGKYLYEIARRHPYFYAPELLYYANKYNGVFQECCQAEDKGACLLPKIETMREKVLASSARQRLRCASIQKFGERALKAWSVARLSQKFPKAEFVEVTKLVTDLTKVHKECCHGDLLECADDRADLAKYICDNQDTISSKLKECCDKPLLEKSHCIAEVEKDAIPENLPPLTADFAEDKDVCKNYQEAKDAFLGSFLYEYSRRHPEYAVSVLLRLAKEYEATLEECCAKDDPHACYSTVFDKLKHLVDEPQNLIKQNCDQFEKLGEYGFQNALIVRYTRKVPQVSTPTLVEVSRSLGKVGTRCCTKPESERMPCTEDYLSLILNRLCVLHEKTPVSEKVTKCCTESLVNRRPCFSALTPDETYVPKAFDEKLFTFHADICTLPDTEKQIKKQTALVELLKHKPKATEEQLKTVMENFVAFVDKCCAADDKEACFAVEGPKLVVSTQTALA

The inhibition is the change of the read-out against control, counted positive when it falls. In general, MIC refers to the least concentration at which growth counts as inhibited. For the molecule `N#Cc1ccc(-c2ccc(-c3cccs3)o2)cc1` [4-[5-(THIOPHEN-2-YL)FURAN-2-YL]BENZONITRILE], the outcome in data set [1] was Active. Also, the Activity result in data set [2] was “Not Active”; in data set [4], 53.1%. For the same molecule, the inhibition in [3] was determined as 46.9%. For the same molecule, the MIC in data set [5] was 10 µg/mL (≈ 39.8 µM); in data set [6], 15 µg/mL (≈ 59.7 µM); in data set [7], 15 µg/mL (≈ 59.7 µM); in data set [8], 10 µg/mL (≈ 39.8 µM); in [9], 15 µg/mL (≈ 59.7 µM). The zone of inhibition at 100 µg/disc in [10] turned out to be 15 mm; in data set [11], 12 mm; in data set [13] it was 14 mm; in [14] it was 12 mm. Besides, the “diameter of the inhibition zone (DIZ)” value in data set [12] worked out at 16 mm.
For the molecule `N=C(N)c1ccc(-c2ccc(-c3cccs3)o2)cc1` [4-[5-(THIOPHEN-2-YL)FURAN-2-YL]BENZAMIDINE], the Activity result was “Active” in data set [2] and 57.7% in data set [4]. Moreover, the inhibition in data set [3] was found to be 53.7%. For the same molecule, the MIC in data set [5] came to 7.5 µg/mL (≈ 27.9 µM); in data set [6], 10 µg/mL (≈ 37.3 µM); in data set [7] it was 15 µg/mL (≈ 55.9 µM); in data set [8], 10 µg/mL (≈ 37.3 µM); in [9] it was 15 µg/mL (≈ 55.9 µM). The zone of inhibition at 100 µg/disc is 12 mm in data set [10], 10 mm in data set [11], 11 mm in data set [13] and 9 mm in data set [14]. In addition, the “diameter of the inhibition zone (DIZ)” value in data set [12] was found to be 9 mm.
For `N=C(N)c1ccc(-c2ccc(-c3ccco3)o2)cc1` [4-(2,2'-BIFURAN-5-YL)BENZAMIDINE], in [1], the outcome was Active. In [2], the result was Active. Moreover, the inhibition in data set [3] amounted to 39.7%. In addition, the MIC in data set [5] is 15 µg/mL (≈ 59.5 µM); in [6], 20 µg/mL (≈ 79.3 µM); in [7], 15 µg/mL (≈ 59.5 µM); in data set [8], 15 µg/mL (≈ 59.5 µM); in data set [9] it was 20 µg/mL (≈ 79.3 µM). Moreover, the zone of inhibition at 100 µg/disc was 11 mm in data set [10], 8 mm in data set [11], 9 mm in [13] and 6 mm in [14]. Besides, the “diameter of the inhibition zone (DIZ)” value in data set [12] was 10 mm.
With `N=C(N)c1ccc(-c2ccc(-c3cccs3)o2)nc1` [6-[5-(THIOPHEN-2-YL)FURAN-2-YL]NICOTINAMIDINE], the outcome in [1] was Active. Also, in data set [2], the outcome was Active. Moreover, the inhibition in [3] amounted to 44.2%. Moreover, the minimum inhibitory concentration (MIC) was 15 µg/mL (≈ 55.7 µM) in [5]; 10 µg/mL (≈ 37.1 µM) in [6]; 20 µg/mL (≈ 74.3 µM) in [7]; 15 µg/mL (≈ 55.7 µM) in data set [8]; 15 µg/mL (≈ 55.7 µM) in [9]. For the same molecule, the zone of inhibition at 100 µg/disc in data set [10] was found to be 10 mm; in [11] it was 11 mm; in [13], 5 mm; in [14], 8 mm. In addition, the “diameter of the inhibition zone (DIZ)” value in data set [12] worked out at 7 mm.
For `N#Cc1ccc(-c2ccc(-c3ccco3)o2)cc1` [4-(2,2'-BIFURAN-5-YL)BENZONITRILE], the result in data set [1] was Active. Moreover, the result in data set [2] was Active. In addition, the inhibition in data set [3] was 42.4%. Also, the MIC in [5] turned out to be 2.5 µg/mL (≈ 10.6 µM); in data set [6], 2 µg/mL (≈ 8.5 µM); in data set [7], 5 µg/mL (≈ 21.3 µM); in data set [8], 2.5 µg/mL (≈ 10.6 µM); in data set [9], 2.5 µg/mL (≈ 10.6 µM). The zone of inhibition at 100 µg/disc in [10] was 16 mm; in data set [11], 18 mm; in data set [13] it was 19 mm; in [14], 18 mm. Moreover, the “diameter of the inhibition zone (DIZ)” value in [12] is 16 mm.
Turning to `N=C(N)c1ccc(-c2ccc(-c3cccs3)s2)cc1` [4-(2,2'-BITHIOPHENE-5-YL)BENZAMIDINE], the result in data set [1] was Active. For the same molecule, the Activity entry in data set [2] was “Not Active”; in [4], 51.9%. Further, the inhibition in data set [3] was 48.1%. In addition, the minimum inhibitory concentration (MIC) in [5] came out at 10 µg/mL (≈ 35.2 µM); in [6] it was 15 µg/mL (≈ 52.7 µM); in data set [7], 20 µg/mL (≈ 70.3 µM); in [8], 15 µg/mL (≈ 52.7 µM); in [9] it was 10 µg/mL (≈ 35.2 µM). For the same molecule, the zone of inhibition at 100 µg/disc in data set [10] came to 12 mm; in data set [11], 8 mm; in data set [13], 9 mm; in [14], 11 mm. Also, in data set [12], the “diameter of the inhibition zone (DIZ)” value turned out to be 8 mm.

Source of the values: ChEMBL document CHEMBL3045539, “Synthesis, DNA affinity, and antimicrobial activity of 4-substituted phenyl-2,2-bichalcophenes and aza-analogues” (Med Chem Res, 2012).
